{
  "source": "patent US20070042947A1",
  "about": "“Agents for preventing and/or treating uppper digestive tract disorders” (Takeda Pharmaceutical Company Limited, priority 2003, published 2007)",
  "key": {"[1]": {"test_system": "pylorus ligated rats", "assay": "Amount of gastrin secretion (blood gastrin level, RIA) in pylorus ligated rats", "type": "in vivo, rat", "conditions": "2 mg/kg (2000 μg/kg group) intraperitoneally; blood 3 hours after pylorus ligature; vs saline group, 8 rats", "description": "After Wistar male rats (340-360 g) were fasted for 16 hours with water given ad libitum as in EXAMPLE 2 above, the animal was exposed at laparotomy under ether anesthesia and submitted to the pylorus ligature assay to close the abdomen. After hNPW23 was dissolved in saline (2 mg/ml), the solution was intraperitoneally injected (2 mg/kg). The control group was given saline. Test was performed with 8 rats in each group. Three hours after the pylorus ligature, the rat's abdomen was opened under anesthesia with Nembutal (40 mg/kg) and blood was collected through the abdominal aorta. The blood was placed in a blood tube of 7 ml (Terumo, containing EDTA), centrifuged (3000 rpm×10 min.) and stored at −40° C in lyophilized state until assay. Gastrin level in blood was assayed with Gastrin RIA KIT II (ABBOTT JAPAN). The F-assay was conducted on mean measurement values."}, "[2]": {"test_system": "pylorus ligated rats", "assay": "Gastric fluid volume, pH, gastric acidity and acid output in pylorus ligated rats", "type": "in vivo, rat", "conditions": "2 mg/kg intraperitoneally; 3 hours after pylorus ligature; mean ± SE, 8 rats", "description": "After Wistar male rats (340-360 g) were fasted for 16 hours with water given ad libitum, the animal was exposed at laparotomy under ether anesthesia and submitted to the pylorus ligature assay to close the abdomen. After hNPW23 was dissolved in saline (2 mg/ml), the solution was intraperitoneally injected (2 mg/kg). The control group was given saline. Test was performed with 8 rats in each group. Three hours after the pylorus ligature, the rat's abdomen was opened under anesthesia with Nembutal (40 mg/kg, Dainippon Pharmaceutical). After ligation of the cardia, the stomach was removed. Gastric contents were collected and centrifuged (2500 rpm×10 min.). Using the supernatant, gastric fluid volume (ml), pH intragastric pH, gastric acidity (mEq/l) and total acid output (μEq/kg/h) were measured.\nTo 1 ml of gastric juice, 30 μl of BTB (Wako Pure Chemical) solution was added and […] NaOH solution was dropwise added to the mixture. The consumed amount of NaOH required to reach the equivalent point (pH 7.0) was measured to calculate the gastric acidity and total acid output.\nThe pH of gastric juice was measured using Twin pH meter B-212 (Horiba, Ltd.).\nThe respective measurements values were calculated according to the equation below and T-assay was conducted.\nGastric acidity (mEq/l)=0.2N NaOH×consumed amount (μl)/gastric juice (1000 μl)\nTotal acid output (μEq/kg/h)=gastric acidity x gastric fluid volume/weight/time"}, "[3]": {"test_system": "Wistar male rats", "assay": "Gastric acid secretion in anesthetized rat by intravenous injection of hNPW23 (stomach perfusion, NaOH titration)", "type": "in vivo", "conditions": "80 μM in saline, 1 ml/h for 30 minutes through the femoral vein; mean±SE, 8 rats; P 0.01 or less vs control", "description": "After Wistar male rats (Nippon Charles River, weighing 320-360 g) were fasted for 16 hours with water given ad libitum, the animal was injected intraperitoneally with ethyl carbamate (Wako Pure Chemical) (1.0 g/ml/kg) and firmly secured to the operating table under anesthesia to perform laparotomy. Stomach catheter (Medtop X2-50, 3.5 mm in outer diameter and […] in inner diameter) was inserted into the stomach (2 cm) through an incision in the duodenum. After ligature at the pyloric canal, the right femoral vein was isolated to perform venous cannulation. The stomach was irrigated with distilled water (Otsuka Pharmaceutical Co., Ltd.) warmed at 37° C. and allowed to stand for about an hour. hNPW23 was dissolved in saline (Otsuka Pharmaceutical Co., Ltd.) to become 80 μM. The control group was given saline. […] Gastric acid output was determined as follows. […] After 30 μl of Bromthymol Blue indicator solution (BTB, Wako Pure Chemical) was added to each gastric juice collected, the mixture was titrated with 0.1N NaOH solution and the consumed amount of NaOH required to reach the equivalent point (the amount consumed) was determined to calculate the gastric acid output. The gastric acid output before administration of hNPW23 was measured and T-assay was conducted on a percentage (%) of changes in gastric acid outputs before and after administration. […]"}},
  "data": [
    {"substance": "hNPW23: human GPR8 ligand peptide (hNPW23), amino acid sequence SEQ ID NO: 1; Neuropeptide W (WYKHVASPRYHTVGRAAGLLMGL; listed as Homo sapiens)", "values": [
      {"measurement": "gastrin level in blood", "setting": "[1]", "result": "increased significantly"},
      {"measurement": "Gastric acidity", "setting": "[2]", "result": "96.0 ± 4.2", "unit": "mEq/l"},
      {"measurement": "Gastric fluid volume", "setting": "[2]", "result": "7.9 ± 1.2", "unit": "mL"},
      {"measurement": "Intragastric pH", "setting": "[2]", "result": "0.83 ± 0.03"},
      {"measurement": "Total acid output", "setting": "[2]", "result": "747.4 ± 121.5", "unit": "μEq/kg/h"},
      {"measurement": "changes in gastric acid outputs (gastric acid output after administration / before administration x 100)", "setting": "[3]", "result": "145.6±8.5", "unit": "%"}
    ]}
  ]
}
